Molecular target: T1, TCLL (tamarind chitinase like lectin) (Tamarindus indica, UniProt S4S1V9)
T1 construct: monomer, glycosylated at Asn146; 33440 Da (deglycosylated 31811 Da); 266 residues modelled (7-272)
Assay: isothermal titration calorimetry (single-site model)
Type: binding
Settings: 20 mM Tris, pH 7.4, 25°C; 0.3 mM protein, 8 mM sugar in syringe; crystal complex at 1.6 Å with two surface sites S1 and S2

T1 sequence (S4S1V9 entry or part of it): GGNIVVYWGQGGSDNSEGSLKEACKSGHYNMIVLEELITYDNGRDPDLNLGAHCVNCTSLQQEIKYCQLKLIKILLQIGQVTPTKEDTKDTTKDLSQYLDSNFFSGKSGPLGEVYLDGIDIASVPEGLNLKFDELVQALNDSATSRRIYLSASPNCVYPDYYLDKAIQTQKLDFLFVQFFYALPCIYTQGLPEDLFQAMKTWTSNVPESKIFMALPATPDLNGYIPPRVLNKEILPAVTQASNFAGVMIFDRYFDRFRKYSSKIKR

In the case of `CC(=O)N[C@H]1C(O)O[C@H](CO)[C@@H](O)[C@@H]1O` (stereo partly shown) [N-acetyl glucosamine], the Ka is reported as 2.9×10^3.
